Results on 9 compounds are retold here after PubChem BioAssay (NCI).

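These data come from cells grown in 96-well plates and exposed to compound for 48 hours at five concentrations. GI50: concentration for 50% inhibition of growth. TGI: concentration producing complete growth inhibition.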

Among the test systems are COLO 205 colon; HS 578T breast; MOLT-4 leukemia; NCI-H522 lung; OVCAR-4 ovarian; SF-295 CNS; SF-539 CNS; SK-MEL-28 melanoma; SNB-75 CNS; UO-31 renal.
Experiment in all cases: NCI-60 cell line screen, 48 h

Regarding `FC(F)(F)c1nc(N2CCCC2)ncc1-c1nnnn1-c1ccc(Cl)cc1`, the GI50 with COLO 205 colon was 10.7 µM; with HS 578T breast it was 21.2 µM; in the experiment on MOLT-4 leukemia it was 5.07 µM; with NCI-H522 lung, 10.2 µM; in the experiment with OVCAR-4 ovarian it was 6.7 µM; in the experiment with SF-295 CNS, 19 µM. Moreover, the GI50 in the experiment on SF-539 CNS was 39.8 µM; with SK-MEL-28 melanoma, 20 µM; with SNB-75 CNS it was 12 µM; with UO-31 renal it was 16.8 µM. Also, the TGI is 27.5 µM with COLO 205 colon; over 100 µM in the experiment with HS 578T breast; 25 µM with MOLT-4 leukemia; 59 µM in the experiment on NCI-H522 lung; 74.8 µM in the experiment with OVCAR-4 ovarian; over 100 µM with SF-295 CNS. The TGI with SF-539 CNS was over 100 µM; in the experiment with SK-MEL-28 melanoma, 74.8 µM; in the experiment with SNB-75 CNS, 65.3 µM; in the experiment with UO-31 renal it was over 100 µM.

Take `O=C(Nc1ccc(Cl)c(Cl)c1)c1cccc(NC2=C(Cl)C(=O)N(Cc3ccccc3)C2=O)c1`: the GI50 was over 100 µM in the experiment on COLO 205 colon; 45.4 µM in the experiment with HS 578T breast; 6.36 µM with MOLT-4 leukemia; 16.6 µM in the experiment with NCI-H522 lung; 48.3 µM with OVCAR-4 ovarian; 49.7 µM in the experiment with SF-295 CNS. Further, the GI50 was 7.75 µM with SF-539 CNS, over 100 µM in the experiment with SK-MEL-28 melanoma, over 100 µM in the experiment with SNB-75 CNS and 34.6 µM in the experiment on UO-31 renal. Moreover, the TGI is over 100 µM in the experiment on COLO 205 colon; over 100 µM with HS 578T breast; 78.5 µM in the experiment with MOLT-4 leukemia; 45.5 µM with NCI-H522 lung; over 100 µM in the experiment with OVCAR-4 ovarian; over 100 µM with SF-295 CNS. Besides, the TGI with SF-539 CNS is 38.2 µM; in the experiment on SK-MEL-28 melanoma, over 100 µM; in the experiment with SNB-75 CNS, over 100 µM; with UO-31 renal, over 100 µM.

For `CC1(C)CC(=O)C(CCC(=O)/C=C/c2ccccc2)C(=O)C1`, the TGI with COLO 205 colon, in the experiment with HS 578T breast, in the experiment with MOLT-4 leukemia, in the experiment on NCI-H522 lung, with OVCAR-4 ovarian and in the experiment with SF-295 CNS was over 100 µM in each case. The TGI in the experiment on SF-539 CNS, in the experiment on SK-MEL-28 melanoma, in the experiment with SNB-75 CNS and in the experiment on UO-31 renal was over 100 µM each time.

`COc1ccc2[nH]c(=O)c3c4ccccc4cn3c2c1`: the GI50 was 0.373 µM in the experiment with COLO 205 colon; 0.25 µM in the experiment on HS 578T breast; 0.399 µM in the experiment on MOLT-4 leukemia; 0.576 µM with NCI-H522 lung; 0.532 µM with OVCAR-4 ovarian; 0.393 µM in the experiment on SF-295 CNS. For the same compound, the GI50 in the experiment with SF-539 CNS was 0.657 µM; in the experiment with SK-MEL-28 melanoma it was 0.663 µM; with SNB-75 CNS it was 0.366 µM; in the experiment on UO-31 renal it was 0.689 µM. The TGI with COLO 205 colon amounted to 1.36 µM; in the experiment on HS 578T breast, 0.775 µM; in the experiment with MOLT-4 leukemia, 2.23 µM; in the experiment with NCI-H522 lung it was 2.44 µM; with OVCAR-4 ovarian it was 2.78 µM; with SF-295 CNS, 1.71 µM. The TGI amounted to 2.53 µM in the experiment on SF-539 CNS, 2.01 µM in the experiment on SK-MEL-28 melanoma, 9.47 µM with SNB-75 CNS and 4.73 µM with UO-31 renal.

Take `Cc1cc2nc(C(C)C(=O)c3ccc(Cl)cc3)c(=O)[nH]c2cc1C` (stereo not given): the TGI in the experiment with COLO 205 colon was 53.7 µM; in the experiment with HS 578T breast, over 100 µM; in the experiment on MOLT-4 leukemia, over 100 µM; with NCI-H522 lung it was over 100 µM; in the experiment on OVCAR-4 ovarian it was over 100 µM; with SF-295 CNS it was over 100 µM. The TGI in the experiment on SF-539 CNS was 93.1 µM; in the experiment with SK-MEL-28 melanoma, over 100 µM; with SNB-75 CNS it was over 100 µM; in the experiment with UO-31 renal, over 100 µM.

As to `CCc1nc(N)nc(N)c1-c1ccc(NCCN)c([N+](=O)[O-])c1`, the TGI was 40.4 µM in the experiment with COLO 205 colon; over 100 µM in the experiment with HS 578T breast; over 82.8 µM in the experiment on MOLT-4 leukemia; over 51.1 µM with NCI-H522 lung; over 100 µM with OVCAR-4 ovarian; over 100 µM with SF-295 CNS. Also, the TGI is over 100 µM in the experiment on SF-539 CNS, over 100 µM with SK-MEL-28 melanoma, over 89.7 µM in the experiment on SNB-75 CNS and over 100 µM with UO-31 renal.

On to `CC[C@]12CCCN3CCc4c(n(c5ccccc45)C(=O)C1)[C@@H]32`, for which the TGI was over 34 µM in the experiment on COLO 205 colon; 49.1 µM with HS 578T breast; over 58.2 µM in the experiment with MOLT-4 leukemia; 7.2 µM in the experiment with NCI-H522 lung; over 76.3 µM in the experiment on OVCAR-4 ovarian; 18.4 µM with SF-295 CNS. Besides, the TGI with SF-539 CNS is over 51.9 µM; with SK-MEL-28 melanoma, over 100 µM; in the experiment with SNB-75 CNS it was 78.4 µM; in the experiment with UO-31 renal, over 100 µM.

With `COc1cc(C(=O)/C=C/c2c(C)n([O-])c3ccc(C)cc3[n+]2=O)cc(OC)c1OC`, the GI50 was 2 µM with COLO 205 colon; 14.7 µM in the experiment on HS 578T breast; 3.57 µM in the experiment on MOLT-4 leukemia; 0.741 µM with NCI-H522 lung; 6.68 µM with OVCAR-4 ovarian; 22.8 µM in the experiment on SF-295 CNS. Also, the GI50 in the experiment on SF-539 CNS is 2.84 µM; with SK-MEL-28 melanoma, 2.41 µM; with SNB-75 CNS, 14.5 µM; with UO-31 renal, 4.63 µM. Besides, the TGI in the experiment on COLO 205 colon is 3.99 µM; in the experiment with HS 578T breast it was 60.7 µM; in the experiment on MOLT-4 leukemia it was over 29.8 µM; in the experiment on NCI-H522 lung it was 2.29 µM; with OVCAR-4 ovarian, 24 µM; in the experiment on SF-295 CNS, over 68 µM. Further, the TGI was determined as 7.12 µM with SF-539 CNS, 6.54 µM in the experiment on SK-MEL-28 melanoma, 31.7 µM with SNB-75 CNS and 10.1 µM with UO-31 renal.

`C=CC[n+]1c(/C=C/C=C2\N(C)c3ccccc3C2(C)C)sc2ccc(OC)cc21`: the GI50 in the experiment with COLO 205 colon is 0.188 µM; with HS 578T breast, 0.465 µM; in the experiment with MOLT-4 leukemia it was 0.309 µM; in the experiment with NCI-H522 lung, 0.133 µM; in the experiment on OVCAR-4 ovarian, 0.114 µM; in the experiment on SF-295 CNS, 0.18 µM. The GI50 in the experiment with SF-539 CNS is 0.329 µM; with SK-MEL-28 melanoma it was 0.464 µM; in the experiment with SNB-75 CNS, 0.283 µM; in the experiment with UO-31 renal it was 1.53 µM. For the same compound, the TGI in the experiment with COLO 205 colon was determined as 0.591 µM; in the experiment with HS 578T breast it was 25.4 µM; in the experiment with MOLT-4 leukemia it was 5.73 µM; in the experiment with NCI-H522 lung, 2.6 µM; in the experiment with OVCAR-4 ovarian, 28.5 µM; in the experiment on SF-295 CNS, 3 µM. The TGI with SF-539 CNS amounted to 13.9 µM; in the experiment with SK-MEL-28 melanoma, 4.79 µM; with SNB-75 CNS, 14.1 µM; with UO-31 renal it was 8.82 µM.
